Test results taken from patent US10487071B2, “Bis-triazole compounds with anti-biofilm and anti-corrosion properties” (Université de Toulon, priority 2015, dated 2019).

Assays:
[1] = system: Pseudoalteromonas ulvae (TC14); experiment: Anti-adhesion test, strain TC14; type: cell-based; settings: Pseudoalteromonas ulvae; for activity at 200 µM: 15 h; for EC50: read-out: EC50 (effective concentration to inhibit 50% of the adhesion)
Method: (§1) Bacterial strains were grown on Väätänen nine-salts solution (VNSS). When the stationary phase was reached, the bacterial suspension was centrifuged. Cells were then diluted in sterile artificial sea water (ASW) and introduced in microtiter plates (sterile black PS; Nunc, Fisher Scientific, France) with the tested compound (at eight concentrations in three replicates) in the presence of three controls: (i) non-specific staining control, (ii) adhesion control, and (iii) positive control. The maximum percentage of solvent (DMSO 2%) used to dilute the tested compound was also tested in triplicate as additional control. After incubation during an optimized adhesion time (moderately 15 h), non-adhered bacteria were eliminated and adhered cells were quantified after SYTO 61 (1 μM) staining. A percentage of inhibition was calculated per well. A sigmoid dose-response curve was obtained by plotting the percentage of inhibition as a function of the log of tested compound concentration, after mean (n=3) and standard deviation (SD) calculation per triplicate for each concentration. EC50 values were then calculated for each compound.
Pseudoalteromonas ulvae (TC14) was isolated in June 2010 in the Military Harbor of Toulon (Mediterranean Sea, France) as described in F. Brian-Jaisson, A. Ortalo-Magné, L. Guentas-Dombrowsky, F. Armougom, Y. Blache, M. Molmeret, Microb. Ecol., 2014, 68, 94-110.

[2] = system: Pseudoalteromonas lipolytica (TC8); experiment: Anti-adhesion test, strain TC8; type: cell-based; settings: Pseudoalteromonas lipolytica; for activity at 200 µM: 15 h, read-out: % of adhesion at 200 μM, TC8; for EC50: read-out: EC50 (effective concentration to inhibit 50% of the adhesion), TC8
Method: (§2) The anti-adhesion bioassays and toxicity tests are adapted from those disclosed in M. Camps, J.-F. Briand, L. Guentas-Dombrowsky, G. Culioli, A. Bazire and Y. Blache, Mar. Poll.
as §1

Paracoccus sp. (4M6) = experiment: Anti-adhesion test, strain 4M6; type: cell-based; settings: Paracoccus; for activity at 200 µM: 15 h, read-out: % of adhesion at 200 μM, 4M6; for EC50: read-out: EC50 (effective concentration to inhibit 50% of the adhesion), 4M6
Method: as §2, §1

Polaribacter sp. (TC5) = experiment: Anti-adhesion test, strain TC5; type: cell-based; settings: for activity at 200 µM: 15 h; for EC50: read-out: EC50 (effective concentration to inhibit 50% of the adhesion)
Method: as §1
Polaribacter sp. (TC5) was isolated in June 2010 in the Military Harbor of Toulon (Mediterranean Sea, France) as described in F. Brian-Jaisson, A. Ortalo-Magné, L. Guentas-Dombrowsky, F. Armougom, Y. Blache, M. Molmeret, Microb. Ecol., 2014, 68, 94-110.

Shewanella sp. (TC11) = experiment: Anti-adhesion test, strain TC11; type: cell-based; settings: for activity at 200 µM: 15 h, strain TC11, read-out: % of adhesion at 200 μM, TC11; for EC50: read-out: EC50 (effective concentration to inhibit 50% of the adhesion), strain TC11
Method: as §1
Shewanella sp. (TC11) was isolated in June 2010 in the Military Harbor of Toulon (Mediterranean Sea, France) as described in F. Brian-Jaisson, A. Ortalo-Magné, L. Guentas-Dombrowsky, F. Armougom, Y. Blache, M. Molmeret, Microb. Ecol., 2014, 68, 94-110.

[3] = Gravimetry (weight loss), corrosion inhibition; settings: mild steel in 1N HCl
Method: The corrosion rates were determined by electrochemical impedance spectroscopy measurements and gravimetry.
Weight loss measurements were performed on 2.5×2.0×0.1 cm rectangular mild steel coupons. The mild steel coupons were immersed into non-de-aerated HCl 1N solution in absence and presence of different concentrations of compounds of general formula (I). After the elapsed time, the coupons were taken out, washed, dried and weighed accurately. Experiments were duplicated.
Weight loss experiments were done to confirm the corrosion inhibitive properties of AS164.
The inhibition efficiency, IE (%), was estimated from the weight loss experiments using the following equation:
[formula] wherein CR^o and CR are respectively the corrosion rate in the absence and presence of AS164.

[4] = system: marine bacterial strains (TC14, TC8, 4M6, TC5 and TC11); experiment: Anti-adhesion test, summary over the strains; type: cell-based; settings: read-out: inhibition of the adhesion of at least two marine bacterial strains
Method: as §1
In examples 64 and 65, the following marine bacterial strains are used.

Structure (SMILES)	activity at 200 µM [1] [%]	EC50 [1] [µM]	activity at 200 µM [2] [%]	EC50 [2] [µM]	activity at 200 µM (Paracoccus sp. (4M6)) [%]	EC50 (Paracoccus sp. (4M6)) [µM]	activity at 200 µM (Polaribacter sp. (TC5)) [%]	EC50 (Polaribacter sp. (TC5)) [µM]	activity at 200 µM (Shewanella sp. (TC11)) [%]	EC50 (Shewanella sp. (TC11)) [µM]	IE % ([3]; 0.1 ppm) [%]	IE % ([3]; 0.3 ppm) [%]	IE % ([3]; 0.5 ppm) [%]	IE % ([3]; 2 ppm) [%]	IE % ([3]; 10 ppm) [%]	inhibition at 200 µM [4] [%]
COc1ccc(Cn2cc(-c3ccc(-c4cn(Cc5ccc(OC)c(Br)c5)nn4)cc3)nn2)cc1Br [SA8, 1-(3-bromo-4-methoxybenzyl)-4-(4-(1-(3-bromo-4-methoxybenzyl)-1H-1,2,3-triazol-4-yl)phenyl)-1H-1,2,3-triazole]	23.3 ± 3.8	99.5 ± 4.5	24.1 ± 2.6	159 ± 28.5	33.1 ± 4.4	163 ± 23.6	38.3 ± 0.1	152 ± 6.7	16.4 ± 8	122 ± 7.1						
CN(C)CCOc1ccc(CCn2cc(-c3ccc(-c4cn(CCc5ccc(OCCN(C)C)c(I)c5)nn4)cc3)nn2)cc1I [SA45, 2-(4-(2-(4-(4-(1-(4-(2-(dimethylamino)ethoxy)-3-iodophenethyl)-1H-1,2,3-triazol-4-yl)phenyl)-1H-1,2,3-triazol-1-yl)ethyl)-2-iodophenoxy)-N,N-dimethylethanamine]	42.1 ± 2.9	175 ± 21.2	30 ± 16.3	135 ± 34.3	3.2 ± 4.6	14.2 ± 3.2	37.5 ± 13.3	147 ± 32.4	9.3 ± 0.5	129 ± 13.2	78.07	93.01	94.67	95.23	96.09	
CN(C)CCOc1ccc(CCn2cc(-c3ccc(-c4cn(CCc5ccc(OCCN(C)C)c(Cl)c5)nn4)cc3)nn2)cc1Cl [SA63, 2-(4-(2-(4-(4-(1-(4-(2-(dimethylamino)ethoxy)-3-chlorophenethyl)-1H-1,2,3-triazol-4-yl)phenyl)-1H-1,2,3-triazol-1-yl)ethyl)-2-chlorophenoxy)-N,N-dimethylethanamine]	30.6 ± 5.3	122 ± 10.7	29 ± 3.2	138 ± 10.6	43.6 ± 3.3	96.6 ± 36.2	37.3 ± 6	133 ± 9.2	37 ± 1	136 ± 5.1	90.68	95.02	95.82	95.98	96.95	
CN(C)CCCOc1ccc(-n2cc(-c3ccc(-c4cn(-c5ccc(OCCCN(C)C)c(Br)c5)nn4)cc3)nn2)cc1Br [SA66, 3-(4-(4-(4-(1-(4-(3-(dimethylamino)propoxy)-3-bromophenyl)-1H-1,2,3-triazol-4-yl)phenyl)-1H-1,2,3-triazol-1-yl)-2-bromophenoxy)-N,N-dimethylpropan-1-amine]	19 ± 6.5	104 ± 4.6	31.7 ± 2.2	141 ± 16.5	24.5 ± 6.9	44.2 ± 25.2	23.3 ± 4	50.2 ± 10.9	45.5 ± 1.1	165 ± 37.8	85.79	88.30	90.41	95.16	96.48	
CN(C)CCOc1ccc(-n2cc(-c3ccc(-c4cn(-c5ccc(OCCN(C)C)cc5)nn4)cc3)nn2)cc1 [SA61, 2-(4-(4-(4-(1-(4-(2-(dimethylamino)ethoxy)phenyl)-1H-1,2,3-triazol-4-yl)phenyl)-1H-1,2,3-triazol-1-yl)phenoxy)-N,N-dimethylethanamine]	47.8 ± 1.7	194 ± 13.7	45.6 ± 1.2	184.4 ± 0.6	40.2 ± 0.3	179 ± 44.9	89.4 ± 0.8		19.3 ± 16.9	140 ± 63.5	87.42	91.92	94.34	95.55	95.93	
Oc1ccc(CCn2cc(CNCc3cn(CCc4ccc(O)c(Br)c4)nn3)nn2)cc1Br [NT27]	29.3 ± 7.5	59.9 ± 27.2	28.9 ± 17	80.3 ± 18.9	27.8 ± 16.3	88.3 ± 46.2										≥ 65
CN(C)CCCOc1ccc(CCCn2cc(-c3ccc(-c4cn(CCCc5ccc(OCCCN(C)C)c(Br)c5)nn4)cc3)nn2)cc1Br [SA32, 3-(4-(3-(4-(4-(1-(3-(4-(3-(dimethylamino)propoxy)-3-bromophenyl)propyl)-1H-1,2,3-triazol-4-yl)phenyl)-1H-1,2,3-triazol-1-yl)propyl)-2-bromophenoxy)-N,N-dimethylpropan-1-amine]	34.3 ± 2.6	115 ± 20.5	17.7 ± 11.1	109 ± 37.2	26.7 ± 5.6	3.1 ± 8.6	53.4 ± 13.8	114 ± 28.6	17.4 ± 2.9	61.1 ± 18.5	79.01	95.43	96.30	96.54	95.58	
CN(C)CCCOc1ccc(CCn2cc(-c3ccc(-c4cn(CCc5ccc(OCCCN(C)C)c(Cl)c5)nn4)cc3)nn2)cc1Cl [SA64, 3-(4-(2-(4-(4-(1-(4-(3-(dimethylamino)propoxy)-3-chlorophenethyl)-1H-1,2,3-triazol-4-yl)phenyl)-1H-1,2,3-triazol-1-yl)ethyl)-2-chlorophenoxy)-N,N-dimethylpropan-1-amine]	28.4 ± 14	147 ± 14.4	20.2 ± 21.1	121 ± 76.8	31 ± 12.4	43.3 ± 14.6	42.9 ± 4.5	150 ± 8.1	42.6 ± 5.6	152 ± 20.4	90.59	94.18	95.90	96.37	96.64	
CN(C)CCCOc1ccc(CCn2cc(-c3ccc(-c4cn(CCc5ccc(OCCCN(C)C)c(I)c5)nn4)cc3)nn2)cc1I [SA46, 3-(4-(2-(4-(4-(1-(4-(3-(dimethylamino)propoxy)-3-iodophenethyl)-1H-1,2,3-triazol-4-yl)phenyl)-1H-1,2,3-triazol-1-yl)ethyl)-2-iodophenoxy)-N,N-dimethylpropan-1-amine]	30.2 ± 3.5	74.4 ± 8.3	17.4 ± 14.3	71.5 ± 4.1	26.6 ± 3.4	48.3 ± 48.9	22.4 ± 14.7	70.6 ± 8.9	5.8 ± 1.2	22.2 ± 13.6	82.23	90.47	94.51	96.05	94.96	
CN(C)CCCOc1ccc(CCn2cc(-c3ccc(-c4cn(CCc5ccc(OCCCN(C)C)cc5)nn4)cc3)nn2)cc1 [SA12, 3-(4-(2-(4-(4-(1-(4-(3-(dimethylamino)propoxy)phenethyl)-1H-1,2,3-triazol-4-yl)phenyl)-1H-1,2,3-triazol-1-yl)ethyl)phenoxy)-N,N-dimethylpropan-1-amine]	42.4 ± 8.6	187 ± 16.5	30 ± 21.9	177 ± 80.1	14.3 ± 7.3	73.2 ± 10.7	66.2 ± 2.8		41 ± 4.1	173 ± 22.4	39.30	69.97	94.65	96.89	95.73	
